Patent publication US20060173015A1, “Cyclohexyldiamines as selective alpha 1a/1d adrenoreceptor antagonists for the treatment of benign prostatic hypertrophy and lower urinary tract symptoms” (priority 2004, published 2006)
Where two headings read alike, the source gives them in different places. One block for each compound: values may come before it.

Experiments:
α1b-AR = target: T1, α1b-AR (Homo sapiens, UniProt P35368); experiment: α1-Adrenergic receptor radio-ligand (125I-HEAT) binding assay, α1b subtype; conditions: Receptor Binding, Ki α1b-AR, COS-7 cell membranes, 125I-HEAT
T1 sequence (P35368 1-520): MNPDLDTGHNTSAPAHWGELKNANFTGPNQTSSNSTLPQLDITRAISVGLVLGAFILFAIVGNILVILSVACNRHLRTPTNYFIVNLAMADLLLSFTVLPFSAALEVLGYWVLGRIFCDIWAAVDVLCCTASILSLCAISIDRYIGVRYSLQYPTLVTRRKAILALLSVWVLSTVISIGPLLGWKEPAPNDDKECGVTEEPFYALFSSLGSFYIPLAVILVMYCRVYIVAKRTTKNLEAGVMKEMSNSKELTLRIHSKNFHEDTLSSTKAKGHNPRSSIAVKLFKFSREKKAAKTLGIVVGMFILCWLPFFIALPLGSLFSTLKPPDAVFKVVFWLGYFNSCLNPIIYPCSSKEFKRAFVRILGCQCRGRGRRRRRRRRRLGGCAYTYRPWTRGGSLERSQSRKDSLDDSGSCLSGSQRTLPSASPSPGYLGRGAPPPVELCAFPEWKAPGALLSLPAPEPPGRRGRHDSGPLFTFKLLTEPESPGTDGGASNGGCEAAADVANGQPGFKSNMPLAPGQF

α1d-AR = target: T2, α1d-AR (Homo sapiens, UniProt P25100); experiment: α1-Adrenergic receptor radio-ligand (125I-HEAT) binding assay, α1d subtype
T2 construct: expressed in transfected cells; host or cells: COS-7
T2 sequence (P25100 1-572): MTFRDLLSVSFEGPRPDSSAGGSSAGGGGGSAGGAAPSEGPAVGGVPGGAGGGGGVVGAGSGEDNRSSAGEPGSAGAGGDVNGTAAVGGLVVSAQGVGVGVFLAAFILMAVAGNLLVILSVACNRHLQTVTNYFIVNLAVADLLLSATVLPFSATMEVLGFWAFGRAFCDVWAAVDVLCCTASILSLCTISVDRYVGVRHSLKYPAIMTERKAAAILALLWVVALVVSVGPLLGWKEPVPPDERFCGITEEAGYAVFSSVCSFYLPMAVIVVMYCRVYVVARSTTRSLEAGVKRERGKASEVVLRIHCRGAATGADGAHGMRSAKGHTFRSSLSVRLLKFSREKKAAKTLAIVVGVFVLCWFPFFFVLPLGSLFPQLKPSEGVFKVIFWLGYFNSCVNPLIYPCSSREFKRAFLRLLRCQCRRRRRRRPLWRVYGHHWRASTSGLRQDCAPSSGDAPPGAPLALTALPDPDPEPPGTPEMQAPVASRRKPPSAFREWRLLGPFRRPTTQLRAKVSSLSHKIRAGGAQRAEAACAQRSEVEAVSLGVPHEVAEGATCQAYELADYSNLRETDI
Description: α1-Adrenergic Receptor Binding Assay: Preparation of COS Cell Membranes
Membranes were prepared from COS-7 cells that had been transfected with one of the three α1-AR subtypes by the following method. COS cells from ten 100 mm tissue culture plates were scraped into 5 mL TE (50 mM Tris-HCl, 5 mM EDTA, pH 7.4). The cell suspension was disrupted with a Brinkman Polytron, setting 8, for 10 sec. The disrupted cells were centrifuged at 1000×g for 10 min at 4° C. Supernatants were centrifuged at 34,500×g for 20 min at 4° C. The membrane pellets were suspended in 2 mL TNE (50 mM Tris-HCl, 5 mM EDTA, 150 mM NaCl, pH7.4). An aliquot of the membrane suspension was stored at −70° C. until use. The protein concentration was determined using the BioRad DC protein assay kit following membrane solubilization with Triton X-100.
Radio-Ligand Binding Assay
Triplicate determinations of radio-ligand binding in the presence of increasing: concentrations of testing compound were made. The reagents were added to 96-well polypropylene plate wells using the Biomek 1000 robot (Beckman Instruments). […] The plate was incubated at rt for 1 hr. The contents of the wells were filtered through a GF/C membrane Unifilter plate (Packard Instruments) using the Packard Filtermate cell harvester. The filter plates were dried in a vacuum oven for 30 min at 40° C. 25 μL Microscint 20 liquid scintillation fluid (Packard Instuments) was added to each well. The radioactive content was analyzed in the TopCount microplate scintillation counter (Packard Instruments).

[1] = COS-7 cell membranes, 125I-HEAT, read-out: Receptor Binding, Ki α1d-AR
[2] = Receptor Binding, Ki α1d-AR, COS-7 cell membranes, 125I-HEAT

Compound: CC(C)Oc1ccccc1N1CCN([C@H]2CC[C@@H](NS(=O)(=O)c3cccc(C(F)(F)F)c3)CC2)CC1 [Cpd 2, N-cis-{4-[4-(2-Isopropoxy-phenyl)-piperazin-1-yl]-cyclohexyl}-3-trifluoromethyl-benzenesulfonamide]
Ki (α1b-AR): 0.276 µM

Compound: CC(C)Oc1ccccc1N1CCN([C@H]2CC[C@@H](NS(=O)(=O)c3ccc(S(C)(=O)=O)cc3)CC2)CC1 [Cpd 6, N-cis-{4-[4-(2-Isopropoxy-phenyl)-piperazin-1-yl]-cyclohexyl}-4-methanesulfonyl-benzenesulfonamide]
Ki (α1d-AR; [1]): 0.0034 µM
Ki (α1b-AR): 0.195 µM

Compound: COc1ccc(S(=O)(=O)N[C@H]2CC[C@@H](N3CCN(c4ccccc4OC(C)C)CC3)CC2)cc1OC [Cpd 7, N-cis-{4-[4-(2-Isopropoxy-phenyl)-piperazin-1-yl]-cyclohexyl}-3,4-dimethoxy-benzenesulfonamide]
Ki (α1d-AR): 0.001 µM
Ki (α1b-AR): 0.109 µM

Compound: COc1ccc(OC)c(S(=O)(=O)N[C@H]2CC[C@@H](N3CCN(c4ccccc4OC(C)C)CC3)CC2)c1 [Cpd 8, N-cis-{4-[4-(2-Isopropoxy-phenyl)-piperazin-1-yl]-cyclohexyl}-2,5-dimethoxy-benzenesulfonamide]
Ki (α1d-AR; [2]): 0.0096 µM
Ki (α1b-AR): 0.167 µM

Compound: CC(C)Oc1ccccc1N1CCN([C@H]2CC[C@@H](NS(=O)(=O)c3cccc(C(F)(F)F)c3)CC2)CC1 [Cpd 16, N-cis-{4-[4-(2-Isopropoxy-phenyl)-piperazin-1-yl]-cyclohexyl}-3-trifluoromethyl-benzenesulfonamide]
Ki (α1b-AR): 0.222 µM

Compound: CC(C)Oc1ccccc1N1CCN([C@H]2CC[C@@H](NS(=O)(=O)c3ccccc3F)CC2)CC1 [Cpd 21, 2-Fluoro-N-cis-{4-[4-(2-isopropoxy-phenyl)-piperazin-1-yl]-cyclohexyl}-benzenesulfonamide]
Ki (α1d-AR; [2]): 0.0027 µM
Ki (α1b-AR): 0.103 µM

Compound: CC(C)Oc1ccccc1N1CCN([C@H]2CC[C@@H](NS(=O)(=O)c3cccc(Cl)c3F)CC2)CC1 [Cpd 23, 3-Chloro-2-fluoro-N-cis-{4-[4-(2-isopropoxy-phenyl)-piperazin-1-yl]-cyclohexyl}-benzenesulfonamide]
Ki (α1d-AR; [1]): 0.003 µM
Ki (α1b-AR): 0.195 µM

Compound: CC(C)Oc1ccccc1N1CCN([C@H]2CC[C@@H](NS(=O)(=O)c3ccc(Cl)cc3F)CC2)CC1 [Cpd 24, 4-Chloro-2-fluoro-N-cis-{4-[4-(2-isopropoxy-phenyl)-piperazin-1-yl]-cyclohexyl}-benzenesulfonamide]
Ki (α1d-AR): 0.0015 µM
Ki (α1b-AR): 0.101 µM

Compound: CC(C)Oc1ccccc1N1CCN([C@H]2CC[C@@H](NS(=O)(=O)c3ccccc3C#N)CC2)CC1 [Cpd 27, 2-Cyano-N-cis-{4-[4-(2-isopropoxy-phenyl)-piperazin-1-yl]-cyclohexyl}-benzenesulfonamide]
Ki (α1d-AR; [1]): 0.0063 µM
Ki (α1b-AR): 0.217 µM

Ki (α1d-AR; [1]): 0.0008 µM
Ki (α1b-AR): 0.042 µM
Compound: COc1ccc(Br)cc1S(=O)(=O)N[C@H]1CC[C@@H](N2CCN(c3ccccc3OC(C)C)CC2)CC1 [Cpd 28, 5-Bromo-N-cis-{4-[4-(2-isopropoxy-phenyl)-piperazin-1-yl]-cyclohexyl}-2-methoxy-benzenesulfonamide]

Compound: CC(C)Oc1ccccc1N1CCN([C@H]2CC[C@H](NS(=O)(=O)c3cccc(C(F)(F)F)c3)CC2)CC1 [Cpd 30, N-trans-{4-[4-(2-Isopropoxy-phenyl)-piperazin-1-yl]-cyclohexyl}-3-trifluoromethyl-benzenesulfonamide]
Ki (α1d-AR; [2]): 0.049 µM
Ki (α1b-AR): 0.204 µM

Compound: CC(C)Oc1ccccc1N1CCN([C@H]2CC[C@H](NS(=O)(=O)c3ccc(S(C)(=O)=O)cc3)CC2)CC1 [Cpd 34, N-trans-{4-[4-(2-Isopropoxy-phenyl)-piperazin-1-yl]-cyclohexyl}-4-methanesulfonyl-benzenesulfonamide]
Ki (α1d-AR; [1]): 0.022 µM
Ki (α1b-AR): 0.392 µM

Compound: COc1ccc(S(=O)(=O)N[C@H]2CC[C@H](N3CCN(c4ccccc4OC(C)C)CC3)CC2)cc1OC [Cpd 35, N-trans-{4-[4-(2-Isopropoxy-phenyl)-piperazin-1-yl]-cyclohexyl}-3,4-dimethoxy-benzenesulfonamide]
Ki (α1d-AR): 0.024 µM
Ki (α1b-AR): 0.126 µM

Compound: COc1ccc(OC)c(S(=O)(=O)N[C@H]2CC[C@H](N3CCN(c4ccccc4OC(C)C)CC3)CC2)c1 [Cpd 36, N-trans-{4-[4-(2-Isopropoxy-phenyl)-piperazin-1-yl]-cyclohexyl}-2,5-dimethoxy-benzenesulfonamide]
Ki (α1d-AR; [2]): 0.056 µM
Ki (α1b-AR): 0.424 µM

Compound: CC(C)Oc1ccccc1N1CCN([C@H]2CC[C@H](NS(=O)(=O)c3cccc(C(F)(F)F)c3)CC2)CC1 [Cpd 44, N-trans-{4-[4-(2-Isopropoxy-phenyl)-piperazin-1-yl]-cyclohexyl}-3-trifluoromethyl-benzenesulfonamide]
Ki (α1d-AR; [2]): 0.0347 µM
Ki (α1b-AR): 0.334 µM

Compound: CC(C)Oc1ccccc1N1CCN([C@H]2CC[C@H](NS(=O)(=O)c3ccccc3F)CC2)CC1 [Cpd 49, 2-Fluoro-N-trans-{4-[4-(2-isopropoxy-phenyl)-piperazin-1-yl]-cyclohexyl}-benzenesulfonamide]
Ki (α1d-AR; [2]): 0.03 µM
Ki (α1b-AR): 0.385 µM

Compound: CC(C)Oc1ccccc1N1CCN([C@H]2CC[C@H](NS(=O)(=O)c3cccc(Cl)c3F)CC2)CC1 [Cpd 51, 3-Chloro-2-fluoro-N-trans-{4-[4-(2-isopropoxy-phenyl)-piperazin-1-yl]-cyclohexyl}-benzenesulfonamide]
Ki (α1d-AR; [1]): 0.024 µM
Ki (α1b-AR): 0.348 µM

Compound: CC(C)Oc1ccccc1N1CCN([C@H]2CC[C@H](NS(=O)(=O)c3ccc(Cl)cc3F)CC2)CC1 [Cpd 52, 4-Chloro-2-fluoro-N-trans-{4-[4-(2-isopropoxy-phenyl)-piperazin-1-yl]-cyclohexyl}-benzenesulfonamide]
Ki (α1d-AR): 0.019 µM
Ki (α1b-AR): 0.243 µM

Compound: CC(C)Oc1ccccc1N1CCN([C@H]2CC[C@H](NS(=O)(=O)c3ccccc3C#N)CC2)CC1 [Cpd 55, 2-Cyano-N-trans-{4-[4-(2-isopropoxy-phenyl)-piperazin-1-yl]-cyclohexyl}-benzenesulfonamide]
Ki (α1d-AR; [1]): 0.0032 µM
Ki (α1b-AR): 0.031 µM

Ki (α1d-AR; [1]): 0.038 µM
Ki (α1b-AR): 0.131 µM
Compound: COc1ccc(Br)cc1S(=O)(=O)N[C@H]1CC[C@H](N2CCN(c3ccccc3OC(C)C)CC2)CC1 [Cpd 56, 5-Bromo-N-trans-{4-[4-(2-isopropoxy-phenyl)-piperazin-1-yl]-cyclohexyl}-2-methoxy-benzenesulfonamide]
